Molecules are shown by their SMILES. Activity calls are given as the source filed them. The rule behind the calls is not given here.

Data set [1] has as its system MDA-MB-231. Briefly: Antitumor activity against luciferase-tagged human MDA-MB-231 cells xenografted in BALB/c mouse assessed as induction of tumor suppression at 10 mg/kg/3 days, ip measured after 50 days. The settings on record: time 50.0 day. It counts as functional, organism-based.
The subject of data set [2] is MDA-MB-231. The data set is described as follows: Antitumor activity against luciferase-tagged human MDA-MB-231 cells xenografted in BALB/c mouse assessed as induction of delayed lung metastasis at 10 mg/kg/3 days, ip measured after 50 days. It counts as functional, organism-based. The settings on record: time 50.0 day.
Data set [3] deals with MDA-MB-231. The data set is described as follows: Antitumor activity against luciferase-tagged human MDA-MB-231 cells xenografted in BALB/c mouse assessed as reduction in number of metastatic foci in lungs at 10 mg/kg/3 days, ip measured after 50 days by histological analysis. It counts as functional, organism-based. The settings on record: time 50.0 day.
Data set [4] deals with MDA-MB-231. Briefly: Antitumor activity against luciferase-tagged human MDA-MB-231 cells xenografted in BALB/c mouse assessed as reduction in metastatic nodules in lymph node at 10 mg/kg/3 days, ip measured after 50 days by H and E staining based histological analysis. It counts as functional, organism-based. The settings on record: time 50.0 day.
In data set [5] the test system is MDA-MB-231. The data set is described as follows: Antiangiogenesis activity against luciferase-tagged human MDA-MB-231 cells xenografted in BALB/c mouse assessed as reduction in number of vessels surrounding tumor nodules by measuring CD31 expression at 10 mg/kg/3 days, ip measured after 50 days by immunostaining. It counts as functional, organism-based. The settings on record: time 50.0 day.

The test system of data set [6] is MDA-MB-231. Briefly: Antiangiogenesis activity against luciferase-tagged human MDA-MB-231 cells xenografted in BALB/c mouse assessed as reduction in cell proliferation by measuring Ki67 expression at 10 mg/kg/3 days, ip measured after 50 days by immunostaining. It counts as functional, organism-based. The settings on record: time 50.0 day.
The subject of data set [7] is MDA-MB-231. Briefly: Inhibition of Sialyltransferase in human MDA-MB-231 cells assessed as decrease p-talin-1 association with integrins beta1 and beta 3 after 48 hrs by immunofluorescence and coimmunoprecipitation assay. It counts as cell-based.
Data set [8] has as its target T1, CMP-N-acetylneuraminate-beta-1,4-galactoside alpha-2,3-sialyltransferase (Rattus norvegicus, UniProt Q02734).
T1 sequence (Q02734 whole entry): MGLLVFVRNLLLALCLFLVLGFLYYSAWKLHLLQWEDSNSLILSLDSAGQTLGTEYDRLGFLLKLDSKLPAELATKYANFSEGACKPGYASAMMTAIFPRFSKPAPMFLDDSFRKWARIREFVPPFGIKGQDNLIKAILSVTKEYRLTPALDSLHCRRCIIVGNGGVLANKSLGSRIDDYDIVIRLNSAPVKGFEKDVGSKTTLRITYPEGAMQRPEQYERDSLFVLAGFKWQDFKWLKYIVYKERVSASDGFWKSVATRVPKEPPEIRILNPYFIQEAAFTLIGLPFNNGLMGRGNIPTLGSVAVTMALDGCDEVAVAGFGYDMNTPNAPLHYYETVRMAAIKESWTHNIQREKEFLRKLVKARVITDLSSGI
The data set is described as follows: Inhibition of rat alpha-2,3-N-ST3GALIII assessed as reduction in sialylated-product formation using Gal-beta1-4Glc and CMP-NeuSAc incubated for 1.5 hrs by reverse-phase HPLC analysis.

Data set [9] concerns the target T2, Beta-galactoside alpha-2,6-sialyltransferase 1 (Homo sapiens, UniProt P15907).
T2 sequence (P15907 whole entry): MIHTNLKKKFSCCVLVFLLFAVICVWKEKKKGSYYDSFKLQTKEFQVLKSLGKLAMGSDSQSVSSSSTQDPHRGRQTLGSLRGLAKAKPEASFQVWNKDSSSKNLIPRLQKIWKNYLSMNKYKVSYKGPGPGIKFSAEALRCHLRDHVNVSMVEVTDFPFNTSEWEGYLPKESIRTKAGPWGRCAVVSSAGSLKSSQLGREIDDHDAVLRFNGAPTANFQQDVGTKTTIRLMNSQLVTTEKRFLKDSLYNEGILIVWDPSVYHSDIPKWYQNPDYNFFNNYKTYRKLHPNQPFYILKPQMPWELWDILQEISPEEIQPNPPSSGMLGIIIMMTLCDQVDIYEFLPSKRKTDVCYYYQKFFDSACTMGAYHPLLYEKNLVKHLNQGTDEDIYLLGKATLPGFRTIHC
Briefly: Inhibition of human alpha-2,6-ST6GAL1 assessed as reduction in sialylated-product formation using Gal-beta1-4GlcNac and CMP-NeuSAc incubated for 15 mins by reverse-phase HPLC analysis.

Data set [10] has as its target T3, Sialyltransferase ST3Gal-I (Rattus norvegicus) (UniProt Q6H8N0).
T3 sequence (whole entry): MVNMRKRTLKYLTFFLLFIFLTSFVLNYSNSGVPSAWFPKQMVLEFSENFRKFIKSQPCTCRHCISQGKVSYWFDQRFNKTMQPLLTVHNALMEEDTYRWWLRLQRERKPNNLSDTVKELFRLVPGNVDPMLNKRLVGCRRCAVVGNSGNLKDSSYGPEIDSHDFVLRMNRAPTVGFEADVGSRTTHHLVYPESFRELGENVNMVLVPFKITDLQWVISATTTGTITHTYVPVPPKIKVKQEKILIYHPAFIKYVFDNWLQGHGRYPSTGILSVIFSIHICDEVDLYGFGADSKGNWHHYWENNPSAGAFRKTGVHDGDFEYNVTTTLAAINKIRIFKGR
Briefly: Inhibition of rat alpha-2,3-O-ST3GALI assessed as reduction in sialylated-product formation at 500 uM using p-nitrophenyl T-antigen and CMP-NeuSAc incubated for 15 mins by reverse-phase HPLC analysis relative to control.

In data set [11] the target is T3, Sialyltransferase ST3Gal-I (Rattus norvegicus). The data set is described as follows: Inhibition of rat alpha-2,3-O-ST3GALI assessed as reduction in sialylated-product formation at 1 mM using p-nitrophenyl T-antigen and CMP-NeuSAc incubated for 15 mins by reverse-phase HPLC analysis relative to control.
Data set [12] is filed under the species Rattus norvegicus. The data set is described as follows: Selectivity ratio of inhibition of rat alpha-2,3-O-ST3GALI at 500 uM to IC50 for inhibition of rat alpha-2,3-N-ST3GALIII.
The species entered for data set [13] is Rattus norvegicus. Briefly: Selectivity ratio of inhibition of rat alpha-2,3-O-ST3GALI at 1000 uM to IC50 for inhibition of rat alpha-2,3-N-ST3GALIII.
A short description of data set [14]: Selectivity ratio of IC50 for of inhibition of rat alpha-2,3-O-ST3GALI to IC50 for inhibition of human alpha-2,6-ST6GAL1.
Data set [15] is described as follows: Toxicity in human MDA-MB-231 cells assessed as cell survival at >60 uM relative to control. It counts as cell-based. The settings on record: read-out: Survival.
Data set [16] deals with MDA-MB-231. The data set is described as follows: Inhibition of serum-induced cell migration of human MDA-MB-231 cells incubated for 16 hrs by Boyden chamber assay. The settings on record: MDA-MB-231, 16 h. It counts as functional, cell-based.
In data set [17] the test system is MDA-MB-231. Briefly: Inhibition of serum-induced cell migration of human MDA-MB-231 cells at 20 uM incubated for 16 hrs by Boyden chamber assay. It counts as functional, cell-based.
The test system of data set [18] is MDA-MB-231. Briefly: Inhibition of Sialyltransferase in human MDA-MB-231 cells assessed as suppression of sialylation of integrin subunit beta1/beta3/beta4/beta5 at 10 to 20 um after 48 hrs by Western blot analysis. It counts as cell-based. The settings on record: dose 10-20 µM.
Data set [19] has as its system MDA-MB-231. The data set is described as follows: Inhibition of Sialyltransferase in human MDA-MB-231 cells assessed as reduction in integrin isoforms expression (alphaV/alpha5/beta1/beta3/beta4/beta5) at 10 to 20 uM incubated for 48 hrs by immunoblot analysis. It counts as cell-based. The settings on record: dose 10-20 µM.
In data set [20] the test system is MDA-MB-231. Briefly: Inhibition of Sialyltransferase in human MDA-MB-231 cells assessed as reduction in FAK Tyr397 phosphorylation level at 10 to 20 uM incubated for 48 hrs by immunoblot analysis. It counts as cell-based. The settings on record: dose 10-20 µM.
The test system of data set [21] is MDA-MB-231. The data set is described as follows: Inhibition of Sialyltransferase in human MDA-MB-231 cells assessed as reduction in FAK Tyr576/577 phosphorylation level at 10 to 20 uM incubated for 48 hrs by immunoblot analysis. It counts as cell-based. The settings on record: dose 10-20 µM.
Data set [22] relates to MDA-MB-231. Briefly: Inhibition of Sialyltransferase in human MDA-MB-231 cells assessed as reduction in FAK Tyr925 phosphorylation level at 10 to 20 uM incubated for 48 hrs by immunoblot analysis. It counts as cell-based. The settings on record: dose 10-20 µM.
The test system of data set [23] is MDA-MB-231. The data set is described as follows: Inhibition of Sialyltransferase in human MDA-MB-231 cells assessed as reduction in paxillin Tyr118 phosphorylation level at 10 to 20 uM incubated for 48 hrs by immunoblot analysis. It counts as cell-based. The settings on record: dose 10-20 µM.
The test system of data set [24] is MDA-MB-231. Briefly: Inhibition of Sialyltransferase in human MDA-MB-231 cells assessed as reduction in IKKalpha/beta Ser176/180 phosphorylation level at 10 to 20 uM incubated for 48 hrs by immunoblot analysis. It counts as cell-based. The settings on record: dose 10-20 µM.
The subject of data set [25] is MDA-MB-231. The data set is described as follows: Inhibition of Sialyltransferase in human MDA-MB-231 cells assessed as reduction in IkappaB-alpha Ser32 phosphorylation level at 10 to 20 uM incubated for 48 hrs by immunoblot analysis. It counts as cell-based. The settings on record: dose 10-20 µM.
Data set [26] relates to MDA-MB-231. Briefly: Inhibition of Sialyltransferase in human MDA-MB-231 cells assessed as reduction in NFkappaB Ser536 phosphorylation level at 10 to 20 uM incubated for 48 hrs by immunoblot analysis. It counts as cell-based. The settings on record: dose 10-20 µM.
The nature of data set [27]: Apparent permeability at pH 7.4 by PAMPA.
Data set [28] deals with T4, Sialyltransferase ST3Gal-I (Rattus norvegicus, UniProt Q6H8N0).
T4 sequence (Q6H8N0 whole entry): T3 sequence (whole entry)
The data set is described as follows: Inhibition of rat alpha-2,3-O-ST3GALI assessed as reduction in sialylated-product formation using p-nitrophenyl T-antigen and CMP-NeuSAc incubated for 15 mins by reverse-phase HPLC analysis.

The species named for data set [29] is Rattus norvegicus. Briefly: Selectivity ratio of IC50 for of inhibition of rat alpha-2,3-O-ST3GALI to IC50 for inhibition of rat alpha-2,3-N-ST3GALIII.

As for `CC(=O)O[C@H]1C(=O)[C@@]2(C)[C@H]([C@H](OC(=O)c3ccccc3)[C@]3(O)C[C@H](OC(=O)[C@H](O)[C@@H](NC(=O)c4ccccc4)c4ccccc4)C(C)=C1C3(C)C)[C@]1(OC(C)=O)CO[C@@H]1C[C@@H]2O`, the outcome in the data set with MDA-MB-231 [1], in the data set with MDA-MB-231 [2], in the data set with MDA-MB-231 [3], in the data set with MDA-MB-231 [4], in the data set on MDA-MB-231 [5] and in the data set on MDA-MB-231 [6] was Active.
On to `C[C@H](CCC(=O)OCCOCCOCCOCCN=[N+]=[N-])[C@H]1CC[C@H]2[C@@H]3CC[C@@H]4C[C@H](OC(=O)[C@H](CC(=O)O)Nc5ccc([N+](=O)[O-])c6nonc56)CC[C@]4(C)[C@H]3CC[C@]12C`, for which the inhibition result with MDA-MB-231 [7] was “Dose-dependent effect”; in data set [10] it was 0%; in data set [11], 50%; in the data set on MDA-MB-231 [19] it was “Dose-dependent effect”; in the data set on MDA-MB-231 [20], “Dose-dependent effect”; in the data set with MDA-MB-231 [21] it was “Dose-dependent effect”. In addition, the inhibition result in the data set with MDA-MB-231 [22] and with MDA-MB-231 [23] was “Dose-dependent effect” in each case. In addition, the 50% inhibitory concentration (IC50) in data set [8] was 1.01 µM; in data set [9], 4.9 µM; in the data set on MDA-MB-231 [16] it was 12 µM. The Selectivity ratio is > 495 in the data set filed under Rattus norvegicus [12] and < 990 in the data set listed under Rattus norvegicus [13]. Further, in data set [14], the Ratio IC50 is > 102. The viability in [15] is > 90%. The inhibition entry in the data set on MDA-MB-231 [17], with MDA-MB-231 [18], with MDA-MB-231 [24], with MDA-MB-231 [25] and in the data set with MDA-MB-231 [26] was “Active” in each case. Further, the Papp in data set [27] was 9 ×10⁻⁶ cm/s.
On to `C[C@H](CCC(=O)O)[C@H]1CC[C@H]2[C@@H]3CC[C@@H]4C[C@H](OC(=O)[C@@H](N)CC(=O)O)CC[C@]4(C)[C@H]3CC[C@]12C`, for which the IC50 in data set [8] was 12 µM; in data set [9], 15.8 µM; in data set [28] it was 39 µM. The Ratio IC50 (in the data set filed under Rattus norvegicus [29]; in data set [14]) was 3 in each case.

The values above are taken from ChEMBL document CHEMBL4765481, “Sialyltransferase Inhibitors Suppress Breast Cancer Metastasis” (J Med Chem, 2021).
